# Test results published in article PMC11053447, “Human ABC and SLC Transporters: The Culprit Responsible for Unspecific PSMA-617 Uptake?” (Pharmaceuticals, 2024).
# Experiments:
# human OCT3 = biological target: T1, human OCT3 (Homo sapiens, UniProt O75751); experiment: SLC transporter substrate assay, HEK293-OCT3-LV vs control HEK293-Mock-LV cells; type: in vitro ADME
# T1 construct: host or cells: HEK293-OCT3-LV
# T1 sequence (O75751 1-556): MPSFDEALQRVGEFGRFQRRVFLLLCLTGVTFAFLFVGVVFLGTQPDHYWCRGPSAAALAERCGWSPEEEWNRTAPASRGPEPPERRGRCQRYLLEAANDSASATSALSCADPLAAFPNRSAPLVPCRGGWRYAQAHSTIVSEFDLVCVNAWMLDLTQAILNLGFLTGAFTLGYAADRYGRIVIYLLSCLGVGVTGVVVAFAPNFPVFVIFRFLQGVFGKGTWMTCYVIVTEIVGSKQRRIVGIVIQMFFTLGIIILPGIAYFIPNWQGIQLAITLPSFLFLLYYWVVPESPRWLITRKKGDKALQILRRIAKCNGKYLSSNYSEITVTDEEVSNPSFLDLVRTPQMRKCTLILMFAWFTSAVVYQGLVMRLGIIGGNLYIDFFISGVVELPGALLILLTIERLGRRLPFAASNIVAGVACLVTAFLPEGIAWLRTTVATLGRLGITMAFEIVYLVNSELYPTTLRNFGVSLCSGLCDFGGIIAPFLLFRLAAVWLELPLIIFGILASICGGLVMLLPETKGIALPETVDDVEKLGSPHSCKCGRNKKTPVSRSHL
# Experimental: SI4. Results of transporter substrate assays (SLC)
# Human Incubation Positive control substrate/ Control Special Incubation Assay […]
# (Cell line) at 37°C [min] [h] […]
# into transfected and control cells.
# Fold accumulation = UPTTRP
# PSMA-617 in SLC transporters.
# NA: not analyzed. Test substances were considered as substrates in case of fold accumulation values > 2 combined with inhibition values higher than 50%.
# 4.7 Organic cation transporter OCT3
# (HEK293-OCT3-LV) and control cells (HEK293-Mock-LV) applying 2- and 20-minute incubation periods, measured in SLC transporter substrate assay. […] Concentrations are nominal.
# Table S16: ([α,β-3H]Nal)Lu-PSMA-617-accumulation in OCT3 transporter-expressing (HEK293-OCT3-LV) and control […]
# Conditions Accumulation (pmol/mg protein)
# Compound Nominal In OCT3 Fold concentration Minutes transporter In control Active accumulation
# [µM] expressing cells transport
# Positive control (accumulation in cpm)
# MPP +: 1-methyl -4-phenylpyridinium.
# MRP4 = biological target: T2, MRP4 (Homo sapiens, UniProt O15439); experiment: Vesicular transport inhibition assay (ABC), MRP4-mediated DHEAS transport, HEK293 membrane vesicles; type: in vitro ADME; conditions: for Relative inhibition / ATP dependent transport / Relative ATP dependent transport: DHEAS probe; for ATP dependent transport / Relative ATP dependent transport: mean (n=3) ± SD
# T2 construct: host or cells: HEK293 (membrane vesicles)
# T2 sequence (O15439 1-1325): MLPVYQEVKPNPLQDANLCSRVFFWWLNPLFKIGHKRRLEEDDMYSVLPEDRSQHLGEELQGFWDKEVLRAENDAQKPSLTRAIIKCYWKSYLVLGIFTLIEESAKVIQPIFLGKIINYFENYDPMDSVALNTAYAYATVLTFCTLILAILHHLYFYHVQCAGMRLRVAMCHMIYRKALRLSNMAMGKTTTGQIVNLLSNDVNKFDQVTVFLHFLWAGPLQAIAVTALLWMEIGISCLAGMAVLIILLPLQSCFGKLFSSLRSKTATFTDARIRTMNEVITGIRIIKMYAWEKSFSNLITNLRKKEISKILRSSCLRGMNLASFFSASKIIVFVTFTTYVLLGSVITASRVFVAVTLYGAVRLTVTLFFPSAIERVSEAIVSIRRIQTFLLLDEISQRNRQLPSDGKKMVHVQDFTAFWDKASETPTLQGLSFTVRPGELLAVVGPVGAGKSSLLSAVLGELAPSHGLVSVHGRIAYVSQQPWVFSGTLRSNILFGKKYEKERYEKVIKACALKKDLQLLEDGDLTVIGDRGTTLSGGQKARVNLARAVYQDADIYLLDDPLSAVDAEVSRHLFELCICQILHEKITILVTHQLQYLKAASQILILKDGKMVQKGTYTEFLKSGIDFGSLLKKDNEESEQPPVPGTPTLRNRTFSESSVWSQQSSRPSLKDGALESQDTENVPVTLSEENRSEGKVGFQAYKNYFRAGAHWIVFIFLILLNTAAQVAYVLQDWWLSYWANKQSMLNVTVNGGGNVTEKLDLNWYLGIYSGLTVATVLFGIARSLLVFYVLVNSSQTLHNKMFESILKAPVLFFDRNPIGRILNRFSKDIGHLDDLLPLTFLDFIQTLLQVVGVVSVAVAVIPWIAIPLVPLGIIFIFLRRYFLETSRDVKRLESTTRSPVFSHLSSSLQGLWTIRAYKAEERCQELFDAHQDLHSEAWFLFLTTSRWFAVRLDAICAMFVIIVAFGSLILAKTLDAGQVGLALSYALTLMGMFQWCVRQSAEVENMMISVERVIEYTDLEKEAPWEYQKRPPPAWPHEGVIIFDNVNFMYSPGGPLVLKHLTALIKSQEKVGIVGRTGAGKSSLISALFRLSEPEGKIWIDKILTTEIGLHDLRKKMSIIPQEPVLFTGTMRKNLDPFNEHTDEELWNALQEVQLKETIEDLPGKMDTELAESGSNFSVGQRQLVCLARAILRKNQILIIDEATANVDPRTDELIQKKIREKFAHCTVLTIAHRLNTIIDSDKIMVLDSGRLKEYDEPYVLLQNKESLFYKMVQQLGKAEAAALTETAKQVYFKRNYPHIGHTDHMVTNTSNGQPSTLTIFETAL
structure (smiles),measurement,setting,value
"[3H]C(c1ccc2ccccc2c1)C([3H])(NC(=O)C1CCC(CNC(=O)CN2CCN(CC(=O)[O-])CCN(CC(=O)[O-])CCN(CC(=O)[O-])CC2)CC1)C(=O)NCCCCC(NC(=O)NC(CCC(=O)O)C(=O)O)C(=O)O.[Lu+3] (stereo not drawn) [([α,β-^3H]Nal)Lu-PSMA-617]",Accumulation in OCT3 transporter expressing cells,"human OCT3; 0.03 µM nominal, 2 min",0.026 ± 0.005 pmol/mg protein
same,Accumulation in control cells,"human OCT3; 0.03 µM nominal, 2 min",0.022 ± 0.002 pmol/mg protein
same,"Accumulation, active transport","human OCT3; 0.03 µM nominal, 2 min",0.003 ± 0.005 pmol/mg protein
same,Fold accumulation,"human OCT3; 0.03 µM nominal, 2 min",1.15
same,Accumulation in OCT3 transporter expressing cells,"human OCT3; 0.03 µM nominal, 20 min",0.041 ± 0.004 pmol/mg protein
same,Accumulation in control cells,"human OCT3; 0.03 µM nominal, 20 min",0.032 ± 0.005 pmol/mg protein
same,"Accumulation, active transport","human OCT3; 0.03 µM nominal, 20 min",0.009 ± 0.006 pmol/mg protein
same,Fold accumulation,"human OCT3; 0.03 µM nominal, 20 min",1.29
same,Accumulation in OCT3 transporter expressing cells,"human OCT3; 0.30 µM nominal, 2 min",0.351 ± 0.047 pmol/mg protein
same,Accumulation in control cells,"human OCT3; 0.30 µM nominal, 2 min",0.277 ± 0.047 pmol/mg protein
same,"Accumulation, active transport","human OCT3; 0.30 µM nominal, 2 min",0.074 ± 0.067 pmol/mg protein
same,Fold accumulation,"human OCT3; 0.30 µM nominal, 2 min",1.27
same,Accumulation in OCT3 transporter expressing cells,"human OCT3; 0.30 µM nominal, 20 min",0.446 ± 0.098 pmol/mg protein
same,Accumulation in control cells,"human OCT3; 0.30 µM nominal, 20 min",0.332 ± 0.047 pmol/mg protein
same,"Accumulation, active transport","human OCT3; 0.30 µM nominal, 20 min",0.113 ± 0.109 pmol/mg protein
same,Fold accumulation,"human OCT3; 0.30 µM nominal, 20 min",1.34
same,Substrate assessment (OCT3),"human OCT3; 0.03, 0.30 µM, 2, 20 min",no in vitro substrate
same,"Max. transporter-specific fold accumulation, without inhibitor","human OCT3; 20 min, 0.3 µM",1.34
same,Inhibitor assessment (MRP4),"MRP4; 0.30 and 3.00 µM, inhibition >20% defined as significant",no inhibitor
same,Relative inhibition,MRP4; test substance 0.30 µM nominal,-1%
same,ATP dependent transport,MRP4; test substance 0.30 µM nominal,13761.00 ± 400.40 pmol/mg/min
same,Relative ATP dependent transport,MRP4; test substance 0.30 µM nominal,100.94 ± 4.07 % of control
same,Relative inhibition,MRP4; test substance 3.00 µM nominal,-6%
same,ATP dependent transport,MRP4; test substance 3.00 µM nominal,14510.33 ± 290.35 pmol/mg/min
same,Relative ATP dependent transport,MRP4; test substance 3.00 µM nominal,106.44 ± 3.66 % of control
